“And” between values parts separate entries of the source, which are not always exact repeats. Identical values can stand only once.
Key:
PPARγ = target: T1, PPARγ (Homo sapiens, UniProt P37231); test: PPARγ reporter assay in PAZ-PPARg cells; format: cell-based
T1 construct: endogenous in cells; host or cells: PAZ-PPARg
Procedure: volume of 20 µl in 384-well black plates, with concentrations of tested compounds in the range from 1 […]
dark, and then fluorescent signals were measured at 495 nm and 520 nm, with the excitation filter 340 nm, on Infinite F200 microplate reader (Tecan Group Ltd, Switzerland). Finally, the TR-FRET ratio was calculated by dividing the emission signal of 520 nm by that at 495 nm. All experiments were done in tetraplicates and as two independent experiments. Final EC50 values were obtained by processing the data with GraphPad Prism 6 using standard curve interpolation (sigmoidal, 4PL, variable slope).
Tr a nscriptional activity of PPARγ was studied in stably transfected reporter cell line PAZ-PPARg 20. Cells were seeded in 96 -well plates, stabilized for 24 h, and then incubated with tested compound. Dimethyl sulfoxide (DMSO; 0.1% v/v) and 15 -deoxy-δ1 2 , 1 4-prostaglandin J2 […]
(Schoeller Instruments, Prague, Czech Republic). The data are expressed as fold induction ± SD of luciferase activity over the control cells. Differences were tested using one-way ANOVA wit h Dunnett’s post hoc test, p < 0.05, was considered significant (*).

[1] = test system: IL-8 mRNA in Caco-2 cells; test: IL-8 mRNA in Caco-2 monolayers exposed to cytokine cocktail; format: cell-based, human; design: key to IL8 mRNA: relative IL-8 mRNA level, normalized to GAPDH; conditions: for IL8 mRNA: Caco-2 cells, triplicate
Procedure: Caco‐2 cell (ATCC, Manassas, VA) passages 25–35 were maintained and expanded in culture flasks in Dulbecco's modified Eagle's medium (DMEM) with 10% FBS and 1× antibiotic–antimycotic. The cells were kept in a humidified 37°C incubator with 5% CO2. Media were changed every 2–3 days, and cells were passaged 1–2 times a week. For all experiments, Caco‐2 cells (5 × 10^4 cells/ml) were seeded into 12‐well Transwell inserts or coverslips and cultured for 3 weeks. HIOs were generated from iPSCs as described previously (Spence et al, 2011), with some modifications. The iPSC cell line IISH1i‐BM1 (WiCell, Madison, WI) was cultured on Matrigel plates to 80% confluence in mTeSR™ 1 medium (Stem Cell Technologies, Seattle, WA) and differentiated to endoderm using Definitive Endoderm Kit (Stem Cell Technologies., Seattle, WA) for 4 days with daily media changes. Endoderm was then differentiated to hindgut for 5 days with the addition of FGF‐4 (500 ng/ml; Peprotech, Rocky Hill, NJ) and Chir99021 (3 μM; Cayman, Ann Arbor, MI) in RPMI media supplemented with 2% FBS. Floating hindgut spheroids were collected on days 3–5 of hindgut differentiation and suspended in Matrigel beads for HIO differentiation. HIOs were maintained in WENRAS media (Fujii et al, 2015), which maintains proliferation in the culture. Stock HIOs were passaged weekly by removing Matrigel with Cell Recovery Solution (Corning, NY) and mechanically breaking up organoids with pipetting. HIOs were seeded into new Matrigel beads at a 1:3 split, using WENRAS with added Rock Inhibitor Y‐27632 (10 μM) and Chir99021 (3 μM; Cayman., Ann Arbor, MI) for the first 2 days of culture.
Relative mRNA levels of IL‐8 and IL‐6 were determined using quantitative real‐time PCR, with normalization to GAPDH. RNA was isolated using an RNeasy Mini Kit (Qiagen) as per the manufacturer's instructions. On column DNase (Qiagen) was used to remove any contaminating DNA. Next, cDNA was formed using iScript cDNA Synthesis Kit (Bio‐Rad) and 100 ng RNA. qRT–PCR was performed with SsoAdvanced Universal SYBR Green Kit (Bio‐Rad). The following primers were used: IL‐8 Forward: […]; IL‐8 Reverse: […]; IL‐6 Forward: […]; IL‐6 Reverse: […]; GAPDH Forward: […]; GAPDH Reverse: […]. For immunofluorescent staining of NF‐ĸB translocation to the cell nucleus, HIOs and Caco‐2 cell monolayers were fixed in 4% formaldehyde (in 1 × PBS) overnight at 4°C. The formaldehyde was removed by washing with 1 × PBS, and an antigen retrieval step was performed by incubating in 10 mM sodium citrate buffer in a vegetable steamer for 20 min. The samples were then blocked with normal donkey serum (10% in PBS with 0.3% Triton X‐100) for 1 h. Samples were incubated overnight with primary antibodies: rabbit anti‐NF‐κB p65 (D14E12 # 8242, 1:400 dilution, Cell Signaling Technology, Danvers MA), then immersed in Alexa Fluor® 555 donkey anti‐rabbit secondary antibody (A‐31572, Life Technologies) at a 1:500 dilution. Nuclei were stained with Hoechst 33342 (Life Technologies). The samples were then imaged using a Zeiss LSM880 Confocal/Multiphoton Upright Microscope, with 3‐D image rendering using Volocity. For controls, normal rabbit IgG (#2729S, Life Technologies) was used.

S. typhimurium 14038 = test: Salmonella invasion in iPSC-derived human intestinal organoids; format: cell-based, Salmonella typhimurium; conditions: for salmonella invasion vs cytokines alone: 2, 4, 6, 12 h; for basal salmonella invasion: 10 and 25 μM; for Salmonella CFU/ml: HIO, triplicate
Procedure: FKK compounds were tested for their ability to prevent Salmonella invasion in vitro in non‐inflamed and inflamed cell cultures. Overnight cultures of S. typhimurium 14038 were diluted to OD600 0.01 and injected into with HIOs or immersed over Caco‐2 monolayers for 1 h at 37°C. The invasive ability of Salmonella was assessed using the gentamicin protection assay (Gagnon et al, 2013). Bacterial adhesion scenarios to the Caco‐2 surface were set up as described above. Non‐adhered bacteria were removed by washing twice in PBS, followed by incubation with 1 ml gentamicin (150 μg/ml in DMEM) for 1 h at 37°C to kill the adhered extracellular bacteria. Dead bacteria were removed by washing twice in PBS, followed by incubation with 500 μl 0.1% Triton X‐100 for 15 min at 37°C to lyse the HIOs and Caco‐2, and release the intracellular (invaded) bacteria. Serial fold dilutions and plating were then employed to determine CFU/ml. We normalized to total protein using Bradford assay.

[2] = compound 10µm, no cytokines, 12 hr
[3] = compound 25µm, no cytokines, 2 hr
[4] = cytokines + compound 10µm, 2 hr
[5] = cytokines + compound 10µm, 12 hr
[6] = compound 10µm, no cytokines, 4 hr
[7] = cytokines + compound 25µm, 2 hr
[8] = cytokines + compound 25µm, 12 hr

T1 sequence (P37231 whole entry): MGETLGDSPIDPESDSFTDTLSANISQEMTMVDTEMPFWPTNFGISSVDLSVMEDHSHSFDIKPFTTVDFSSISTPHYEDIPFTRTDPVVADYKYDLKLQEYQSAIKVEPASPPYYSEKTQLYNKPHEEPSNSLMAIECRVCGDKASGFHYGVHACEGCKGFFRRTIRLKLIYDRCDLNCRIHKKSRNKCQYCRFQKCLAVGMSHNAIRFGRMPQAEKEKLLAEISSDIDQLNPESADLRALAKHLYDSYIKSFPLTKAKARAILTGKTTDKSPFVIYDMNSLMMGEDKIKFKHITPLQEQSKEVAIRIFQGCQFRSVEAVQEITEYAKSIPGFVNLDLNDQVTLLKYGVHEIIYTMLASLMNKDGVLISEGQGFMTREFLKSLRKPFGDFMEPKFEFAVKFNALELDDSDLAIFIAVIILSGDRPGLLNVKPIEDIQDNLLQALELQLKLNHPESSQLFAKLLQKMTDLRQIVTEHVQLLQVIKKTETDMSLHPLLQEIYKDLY

Structure (SMILES) | PPARγ ligand agonist activity (PPARγ) | cytokine-induced IL-8 mRNA ([1]; 25 μM) | IL8 mRNA ([1]; compound 10µm, no cytokines, 2 hr) | IL8 mRNA [1, 2] | IL8 mRNA [1, 3] | IL8 mRNA [1, 4] | IL8 mRNA [1, 5] | salmonella invasion vs cytokines alone (S. typhimurium 14038) | basal salmonella invasion (S. typhimurium 14038) | Salmonella CFU/ml (S. typhimurium 14038; [6]) | Salmonella CFU/ml (S. typhimurium 14038; compound 25µm, no cytokines, 6 hr) | Salmonella CFU/ml (S. typhimurium 14038; [4]) | Salmonella CFU/ml (S. typhimurium 14038; [5]) | Salmonella CFU/ml (S. typhimurium 14038; [7]) | Salmonella CFU/ml (S. typhimurium 14038; cytokines + compound 25µm, 4 hr) | Salmonella CFU/ml (S. typhimurium 14038; cytokines + compound 25µm, 6 hr) | IL8 mRNA [1, 7] | IL8 mRNA [1, 8] | Salmonella CFU/ml (S. typhimurium 14038; [2]) | Salmonella CFU/ml (S. typhimurium 14038; [8])
C#CCC(O)(c1ccncc1)c1cc2ccccc2n1S(=O)(=O)c1ccccc1 (stereo not drawn) [FKK6] | did not observe any significant ligand agonist activity | significantly reduced | 2.554 and 1.974 and 1.5894 | 7.6 and 8.533 and 8.223 | 55.8723 and 30.5592 and 31.4544 | 40.0864 and 49.4401 and 49.4954 | 83.1628 and 71.3481 and 97.9287 | significantly reduced | no significant effect | 370 CFU/ml and 296 CFU/ml and 591 CFU/ml | 277 CFU/ml and 280 CFU/ml and 238 CFU/ml | 234 CFU/ml and 133 CFU/ml and 134 CFU/ml | 362 CFU/ml and 381 CFU/ml and 340 CFU/ml | 193 CFU/ml and 132 CFU/ml and 164 CFU/ml | 200 CFU/ml and 140 CFU/ml and 164 CFU/ml | 189 CFU/ml and 151 CFU/ml and 140 CFU/ml | – | – | – | –
O=C(c1ccncc1)c1cc2ccccc2n1S(=O)(=O)c1ccccc1 [FKK5, (1-(phenylsulfonyl)-1H-indol-2-yl)(pyridin-4-yl)methanone] | did not observe any significant ligand agonist activity | – | – | – | 11.5603 and 13.1808 and 10.1297 | 168.69 and 99.441 and 183.41 | – | significantly reduced | no significant effect | 557 CFU/ml and 514 CFU/ml and 578 CFU/ml | – | – | 459 CFU/ml and 469 CFU/ml and 548 CFU/ml | – | – | – | 36.3596 and 45.4346 and 54.4045 | 434.784 and 305.562 and 246.223 | 447 CFU/ml and 508 CFU/ml and 480 CFU/ml | 474 CFU/ml and 339 CFU/ml and 439 CFU/ml

Reference: article PMC7136958, “Targeting the pregnane X receptor using microbial metabolite mimicry” (EMBO Molecular Medicine, 2020)
